Source: PMC10846744, “Cathelicidin peptide analogues inhibit EV71 infection through blocking viral entry and uncoating” (PLOS Pathogens, 2024)
Where no end group is shown, it is not given here.

Experiments:
Type in all cases: cell-based, enterovirus 71 (EV71)
[1] = test system: NanoLuc-EV71 reporter virus / EV71 virus; assay: NanoLuc-EV71 reporter virus luciferase and viral RNA time course; conditions: 1.5 μM peptide pre-incubated with virus 1 hr, RD cells, luciferase at time points
Method: Fig 2 LL-18 and FF-18 inhibit EV71 infection at the early stages of infection. (A-B) NanoLuc-EV71 reporter virus (A) or EV71 virus (MOI = 1, B) was pre-incubated with 1.5 μM LL-18 or FF-18 for 1 hr before they were used to infect RD cells. Luciferase (A) or viral RNA (B) was determined at indicated time points. Viral RNAs were normalized to mock treated cells at 1 h.p.i. ***, P<0.001. (C-E) EV71 virus (MOI = 1) was either pre-incubated with 1.5 μM LL-18 before infection (-2 and -1 time points), added simultaneously with LL-18 (0 time point) or LL-18 was added at indicated time points post-infection (1, 2, 4, 7 time points) and viral VP1 expression (C), cell viability (D), or viral titer (E) was determined 24 h.p.i. ns, not significant; **, P<0.01; ***, P<0.001. (F-H) EV71 virus (MOI = 1) was either pre-incubated with 1.5 μM FF-18 before infection (-2 and -1 time points), added simultaneously with FF-18 (0 time point) or FF-18 was added at indicated time points post-infection (1, 2, 4, 7 time points) and viral VP1 expression (F), cell viability (G), or viral titer (H) was determined 24 h.p.i. ns, not significant; **, P<0.01; ***, P<0.001.
Full-length NanoLuc-EV71 reporter viruses and subgenomic EV71 replicon (SGR) were described previously. […] Nano luciferase and Renilla luciferase were measured with Nano-Glo or Renilla luciferase assay system from Promega (Madison, WI). […]

EV71 virus = assay: Virus attachment assay (q-RT-PCR, immunoblotting); conditions: 1.5 μM peptide (q-RT-PCR, MOI = 1) or 3 μM (immunoblotting, MOI = 10); RD cells 4°C 1 hr
Method: Fig 3 LL-18 and FF-18 inhibit viral attachment and internalization. (A) EV71 virus (MOI = 1) was pre-incubated with 1.5 μM LL-18, FF-18 or 12 μM 12s before they were used to incubate with RD cells at 4°C for 1 hr. Viral RNA was then determined with q-RT-PCR. Values are normalized to vehicle treated cells. ***, P<0.001. (B) EV71 virus (MOI = 1) was pre-incubated with 1.5 μM LL-18, FF-18 or 12 μM 12s before they were used to incubate with RD cells at 4°C for 1 hr followed by 37°C incubation for 1 hr. Viral RNA was then determined with q-RT-PCR. Values are normalized to vehicle treated cells. ***, P<0.001. (C) Diagram of EV71 subgenomic replicon. […] (D) RD cells transfected with EV71 SGR RNA were treated with 1.5 μM LL-18 or FF-18 for 3 hrs (left panel) or 6 hrs (right panel) before luciferase activity was measured. ns, not significant.
Viral binding and internalization assays were performed as previously described. […] Cells were then washed extensively with ice-cold PBS, and the viruses retained were analyzed with real-time PCR. […]
Supplementary file ppat.1011967.s002.tif: S2 Fig LL-18 and FF-18 inhibit viral attachment and internalization. […] Cells were then washed extensively and kept cultured for 24 hrs before viral VP1 expression was determined with immunoblotting. […] Cells were then washed extensively and kept cultured for 24 hrs before viral VP1 expression was determined with immunoblotting. […]

EV71 subgenomic replicon = EV71 subgenomic replicon (SGR) Renilla luciferase assay; conditions: RD cells transfected with SGR RNA, 1.5 μM peptide for 3 or 6 hrs
Method: Fig 3 LL-18 and FF-18 inhibit viral attachment and internalization. (A) EV71 virus (MOI = 1) was pre-incubated with 1.5 μM LL-18, FF-18 or 12 μM 12s before they were used to incubate with RD cells at 4°C for 1 hr. Viral RNA was then determined with q-RT-PCR. Values are normalized to vehicle treated cells. ***, P<0.001. (B) EV71 virus (MOI = 1) was pre-incubated with 1.5 μM LL-18, FF-18 or 12 μM 12s before they were used to incubate with RD cells at 4°C for 1 hr followed by 37°C incubation for 1 hr. Viral RNA was then determined with q-RT-PCR. Values are normalized to vehicle treated cells. ***, P<0.001. (C) Diagram of EV71 subgenomic replicon. Part of the structural genes was replaced with a Renilla luciferase reporter gene. (D) RD cells transfected with EV71 SGR RNA were treated with 1.5 μM LL-18 or FF-18 for 3 hrs (left panel) or 6 hrs (right panel) before luciferase activity was measured. ns, not significant. […]
Full-length NanoLuc-EV71 reporter viruses and subgenomic EV71 replicon (SGR) were described previously. […] Nano luciferase and Renilla luciferase were measured with Nano-Glo or Renilla luciferase assay system from Promega (Madison, WI). Luminescence signals were measured using a BioTek Neo2 microplate reader.

| Sequence | inhibition of NanoLuc expression of NanoLuc-EV71 reporter virus [1] | inhibition of EV71 attachment (EV71 virus) | inhibition of EV71 SGR luciferase (viral translation or replication) (EV71 subgenomic replicon) |
| --- | --- | --- | --- |
| FRKSKEKIGKLFKRIVQRILDFLRNLV [LL-18] | could inhibit the expression of NanoLuc as early as 4 hrs post-infection | could effectively inhibit EV71 attachment | no inhibition |
| FRKSKEKIGKFFKRIVQRIFDFLRNLV [FF-18] | could inhibit the expression of NanoLuc as early as 4 hrs post-infection | could effectively inhibit EV71 attachment | no inhibition |
